Results from PubChem BioAssay AID206 (DTP/NCI, 2004).
Values joined by “and” are separate entries in the source; they are usually repeats but may differ in a detail not shown here. Equal values may be shown once. Inconclusive results are not listed.

Test system: nude mice, HT29 intrarenal xenograft, tumor weight T/C
Test: NCI In Vivo Anticancer Drug Screen. Data for tumor model HT29;CX-1 Human Adenocarcinoma (MER+) (intrarenal inoculation) in NU/NU Swiss (nude) mice
Conditions: endpoint: mean tumor weight change, higher = larger tumour
Method in brief: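 Readout: treated/vehicle-control ratio of the measured endpoint (tumor size or survival) in transplanted-tumor mice.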

[1] = dose: 300.0 mg/kg/injection, schedule: Q04DX004 (sc), vehicle: Klucel (hydroxypropylcellulose) (HPC)
[2] = dose: 150.0 mg/kg/injection, schedule: Q04DX004 (sc), vehicle: saline with Tween-80
[3] = dose: 300.0 mg/kg/injection, schedule: Q04DX004 (sc), vehicle: saline with Tween-80
[4] = dose: 150.0 mg/kg/injection, schedule: Q04DX004 (sc), vehicle: Klucel (hydroxypropylcellulose) (HPC)
[5] = dose: 100.0 mg/kg/injection, schedule: Q01DX010 (sc), vehicle: saline
[6] = dose: 600.0 mg/kg/injection, schedule: Q04DX004 (sc), vehicle: saline with Tween-80
[7] = dose: 1200.0 mg/kg/injection, schedule: Q04DX004 (sc), vehicle: saline with Tween-80
[8] = dose: 450.0 mg/kg/injection, schedule: Q04DX004 (sc), vehicle: saline with Tween-80
[9] = dose: 900.0 mg/kg/injection, schedule: Q04DX004 (sc), vehicle: saline with Tween-80
[10] = dose: 1800.0 mg/kg/injection, schedule: Q04DX004 (sc), vehicle: saline with Tween-80

## CCN(CC)CCCNc1nccc2c(C)c3[nH]c4ccncc4c3cc12
dose: 2.5 mg/kg/injection, schedule: Q01DX010 (sc), vehicle: other
  T/C: 117 % of control
dose: 5.0 mg/kg/injection, schedule: Q01DX010 (sc), vehicle: other
  T/C: 108 % of control
dose: 10.0 mg/kg/injection, schedule: Q01DX010 (sc), vehicle: other
  T/C: 56 % of control

## CO[C@H]1Nc2c(ccc(C)c2O)C(=O)N2C=C(/C=C/C(N)=O)C[C@@H]12
dose: 0.5 mg/kg/injection, schedule: Q04DX004 (sc), vehicle: saline + alcohol
  T/C: 98 % of control
dose: 1.0 mg/kg/injection, schedule: Q04DX004 (sc), vehicle: saline + alcohol
  T/C: 54 % of control

## O.O.[NH-]C1CCCCC1[NH-].[Pt+2] (stereo not given)
dose: 10.0 mg/kg/injection, schedule: Q01DX010 (sc), vehicle: saline
  T/C: 74 % of control
dose: 20.0 mg/kg/injection, schedule: Q01DX010 (sc), vehicle: saline
  T/C: 54 % of control

## O=C1NC(=O)NC(C(=O)O)N1
dose: 50.0 mg/kg/injection, schedule: Q04DX004 (sc), vehicle: Klucel (hydroxypropylcellulose) (HPC)
  T/C: 101 % of control
dose: 100.0 mg/kg/injection, schedule: Q04DX004 (sc), vehicle: Klucel (hydroxypropylcellulose) (HPC)
  T/C: 67 % of control
dose: 200.0 mg/kg/injection, schedule: Q04DX004 (sc), vehicle: Klucel (hydroxypropylcellulose) (HPC)
  T/C: 114 % of control
[1]
  T/C: 108 % of control
dose: 400.0 mg/kg/injection, schedule: Q04DX004 (sc), vehicle: Klucel (hydroxypropylcellulose) (HPC)
  T/C: 91 % of control
dose: 600.0 mg/kg/injection, schedule: Q04DX004 (sc), vehicle: Klucel (hydroxypropylcellulose) (HPC)
  T/C: 95 % of control
dose: 1200.0 mg/kg/injection, schedule: Q04DX004 (sc), vehicle: Klucel (hydroxypropylcellulose) (HPC)
  T/C: 58 % of control

## CCN(CC)Cc1cc2[nH]c3c4ccc(Cl)cc4ncc3c2cc1OC
dose: 37.5 mg/kg/injection, schedule: Q04DX004 (sc), vehicle: saline with Tween-80
  T/C: 187 % of control
[2]
  T/C: 161 % of control
[3]
  T/C: 94 % of control

## COc1ccc2[nH]c3c(c2c1)CCNC3CC(C)CCC=C(C)C (stereo not given)
dose: 37.5 mg/kg/injection, schedule: Q04DX004 (sc), vehicle: Klucel (hydroxypropylcellulose) (HPC)
  T/C: 47 % of control
[4]
  T/C: 62 % of control
[1]
  T/C: 55 % of control

## C=CC(=O)NCNC(=O)C=C
dose: 25.0 mg/kg/injection, schedule: Q01DX010 (sc), vehicle: saline
  T/C: 217 % of control and 220 % of control
[5]
  T/C: 213 % of control

## C=C/C(C)=C/[C@H](C)C(=O)C[C@H](O)CC1CC(=O)NC(=O)C1
[2]
  T/C: 91 % of control
[3]
  T/C: 100 % of control
[6]
  T/C: 67 % of control
[7]
  T/C: 63 % of control

## CN=C(N)N/N=C(\C)c1ccc2c(c1)Cc1ccccc1-2
[2]
  T/C: 116 % of control
[3]
  T/C: 91 % of control
[6]
  T/C: 46 % of control
[7]
  T/C: 81 % of control

## NC(C(=O)O)c1ccc(CBr)cc1 (stereo not given)
dose: 50.0 mg/kg/injection, schedule: Q04DX004 (sc), vehicle: acid diluted with saline
  T/C: 76 % of control
dose: 100.0 mg/kg/injection, schedule: Q04DX004 (sc), vehicle: acid diluted with saline
  T/C: 70 % of control
dose: 200.0 mg/kg/injection, schedule: Q04DX004 (sc), vehicle: acid diluted with saline
  T/C: 65 % of control
dose: 400.0 mg/kg/injection, schedule: Q04DX004 (sc), vehicle: acid diluted with saline
  T/C: 52 % of control

## COc1cccc2c1C(=O)c1c(O)c3c(c(O)c1C2=O)C[C@@](O)(C(C)=O)C[C@@H]3OC1CC(N)C(O)C(C)O1 (stereo not given in full)
dose: 1.0 mg/kg/injection, schedule: Q01DX010 (sc), vehicle: saline
  T/C: 159 % of control

## Cc1cc(N2C(=O)CCSC2=S)ccc1Cl
dose: 75.0 mg/kg/injection, schedule: Q04DX004 (sc), vehicle: Klucel (hydroxypropylcellulose) (HPC)
  T/C: 37 % of control
[4]
  T/C: 55 % of control
[1]
  T/C: 30 % of control

## O=c1[nH]c(=O)n(C2CC(O)C(CO)O2)cc1F (stereo not given)
dose: 25.0 mg/kg/injection, schedule: Q01DX010 (sc), vehicle: water
  T/C: 65 % of control
dose: 50.0 mg/kg/injection, schedule: Q01DX010 (sc), vehicle: water
  T/C: 75 % of control

## CC(=O)NC(C=O)OCC=O (stereo not given)
dose: 100.0 mg/kg/injection, schedule: Q04DX004 (sc), vehicle: water
  T/C: 106 % of control
dose: 200.0 mg/kg/injection, schedule: Q04DX004 (sc), vehicle: water
  T/C: 121 % of control

## O=S(=O)(N=N/C=C1\C=CC=CN1O)c1cccs1
[2]
  T/C: 75 % of control

## O=C1N(Cl)C(=O)C(c2ccc(Cl)cc2)(c2ccc(Cl)cc2)N1Cl
dose: 100.0 mg/kg/injection, schedule: Q01DX010 (sc), vehicle: saline with Tween-80
  T/C: 105 % of control
dose: 200.0 mg/kg/injection, schedule: Q01DX010 (sc), vehicle: saline with Tween-80
  T/C: 83 % of control

## OCC1OC(n2cnc3cncnc32)C(O)C1O (stereo not given)
dose: 12.5 mg/kg/injection, schedule: Q04DX004 (sc), vehicle: saline
  T/C: 65 % of control
dose: 25.0 mg/kg/injection, schedule: Q04DX004 (sc), vehicle: saline
  T/C: 77 % of control
dose: 50.0 mg/kg/injection, schedule: Q04DX004 (sc), vehicle: saline
  T/C: 66 % of control

## Nc1nc(-c2cccc3ccccc23)cc2ccccc12
dose: 200.0 mg/kg/injection, schedule: Q04DX004 (sc), vehicle: saline with Tween-80
  T/C: 67 % of control
dose: 400.0 mg/kg/injection, schedule: Q04DX004 (sc), vehicle: saline with Tween-80
  T/C: 105 % of control

## O=C(O)Cc1cccc2c(=O)cc(-c3ccccc3)oc12
dose: 112.0 mg/kg/injection, schedule: Q04DX003 (ip), vehicle: sodium bicarbonate
  T/C: 42 % of control
dose: 150.0 mg/kg/injection, schedule: Q04DX003 (ip), vehicle: sodium bicarbonate
  T/C: 90 % of control
dose: 200.0 mg/kg/injection, schedule: Q01DX001 (ip), vehicle: sodium bicarbonate
  T/C: 105 % of control
dose: 200.0 mg/kg/injection, schedule: Q04DX003 (ip), vehicle: sodium bicarbonate
  T/C: 46 % of control
dose: 267.0 mg/kg/injection, schedule: Q01DX001 (ip), vehicle: sodium bicarbonate
  T/C: 52 % of control

## Nc1ncnc2c1ncn2C1OC(COP(=O)(O)O)C(O)C1O (stereo not given)
[5]
  T/C: 152 % of control
dose: 200.0 mg/kg/injection, schedule: Q01DX010 (sc), vehicle: saline
  T/C: 198 % of control
dose: 400.0 mg/kg/injection, schedule: Q01DX010 (sc), vehicle: saline
  T/C: 260 % of control
dose: 800.0 mg/kg/injection, schedule: Q01DX010 (sc), vehicle: saline
  T/C: 67 % of control

## OC(CCl)CN1CC[N+]2(CC1)CC[N+]1(CCN(CC(O)CCl)CC1)CC2 (stereo not given)
dose: 32.0 mg/kg/injection, schedule: Q01DX010 (sc), vehicle: water
  T/C: 245 % of control
dose: 64.0 mg/kg/injection, schedule: Q01DX010 (sc), vehicle: water
  T/C: 59 % of control
dose: 128.0 mg/kg/injection, schedule: Q01DX010 (sc), vehicle: water
  T/C: 108 % of control
dose: 256.0 mg/kg/injection, schedule: Q01DX010 (sc), vehicle: water
  T/C: 35 % of control

## OCCCN1CCCCC1CO (stereo not given)
dose: 225.0 mg/kg/injection, schedule: Q04DX004 (sc), vehicle: saline
  T/C: 106 % of control
dose: 450.0 mg/kg/injection, schedule: Q04DX004 (sc), vehicle: saline
  T/C: 89 % of control
dose: 900.0 mg/kg/injection, schedule: Q04DX004 (sc), vehicle: saline
  T/C: 92 % of control

## Cc1ccc(NC(=O)Oc2ccc(Br)cc2Br)c([N+](=O)[O-])c1
[3]
  T/C: 35 % of control
[6]
  T/C: 52 % of control
[7]
  T/C: 69 % of control

## CC1(C)OC2C(COC(=O)c3ccc([N+](=O)[O-])cc3)OC(NC(=O)N(CCCl)N=O)C2O1 (stereo not given)
[2]
  T/C: 38 % of control
[3]
  T/C: 26 % of control
[6]
  T/C: 70 % of control

## Nc1nc([Se])c2ncn(C3OC(CO)C(O)C3O)c2n1 (stereo not given)
dose: 2.0 mg/kg/injection, schedule: Q01DX010 (sc), vehicle: saline
  T/C: 98 % of control
dose: 8.0 mg/kg/injection, schedule: Q01DX010 (sc), vehicle: saline
  T/C: 242 % of control
dose: 16.0 mg/kg/injection, schedule: Q01DX010 (sc), vehicle: saline
  T/C: 202 % of control

## S=c1[nH]cc2cnccn12
[8]
  T/C: 97 % of control
[9]
  T/C: 107 % of control
[10]
  T/C: 117 % of control

## CCCCCCCCCCCCCCCCCCCCCC(=O)Nc1ccn(C2OC(CO)C(O)C2O)c(=O)n1 (stereo not given)
dose: 225.0 mg/kg/injection, schedule: Q04DX004 (sc), vehicle: saline with Tween-80
  T/C: 65 % of control
[8]
  T/C: 88 % of control
[9]
  T/C: 64 % of control
[10]
  T/C: 72 % of control

## CSc1ncnc2c1ncn2C1OC(CO)C(O)C1O (stereo not given)
dose: 37.5 mg/kg/injection, schedule: Q04DX004 (sc), vehicle: saline + alcohol
  T/C: 74 % of control and 77 % of control and 80 % of control
dose: 125.0 mg/kg/injection, schedule: Q04DX004 (sc), vehicle: saline + alcohol
  T/C: 154 % of control
dose: 175.0 mg/kg/injection, schedule: Q04DX004 (sc), vehicle: saline + alcohol
  T/C: 65 % of control
